In ChEMBL document CHEMBL1201862, “PubChem BioAssay data set” (2004):
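Tested at 5 concentrations; 48 h exposure; 96-well plates; endpoints linearly interpolated, else capped at highest concentration. The concentration for 50% growth inhibition is given as GI50.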 Activity calls are given as the source filed them. Cut-off read from the data, not from the text of the source: active = GI50 up to about 1.1 µM and inactive = higher.

Experiments:
Experiment in all cases: growth of human tumour cells (NCI), 48 h
A549 = system: A549
ACHN = system: ACHN
COLO 205 = system: COLO 205
DU-145 = system: DU-145
HCT-116 = system: HCT-116
HOP-62 = system: HOP-62
HT-29 = system: HT-29
IGROV-1 = system: IGROV-1
MOLT-4 = system: MOLT-4
OVCAR-3 = system: OVCAR-3
OVCAR-4 = system: OVCAR-4
PC-3 = system: PC-3
SK-MEL-2 = system: SK-MEL-2
SK-OV-3 = system: SK-OV-3
SNB-75 = system: SNB-75
U-251 = system: U-251
UACC-257 = system: UACC-257
UO-31 = system: UO-31
SK-MEL-28 = system: SK-MEL-28
A498 = system: A498

| SMILES | GI50 (A549) | GI50 (ACHN) | GI50 (COLO 205) | GI50 (DU-145) | GI50 (HCT-116) | GI50 (HOP-62) | GI50 (HT-29) | GI50 (IGROV-1) | GI50 (MOLT-4) | GI50 (OVCAR-3) | GI50 (OVCAR-4) | GI50 (PC-3) | GI50 (SK-MEL-2) | GI50 (SK-OV-3) | GI50 (SNB-75) | GI50 (U-251) | GI50 (UACC-257) | GI50 (UO-31) | GI50 (SK-MEL-28) | GI50 (A498) |
| --- | --- | --- | --- | --- | --- | --- | --- | --- | --- | --- | --- | --- | --- | --- | --- | --- | --- | --- | --- | --- |
| CCOC(=O)/C1=C(\C)N(c2ccc(C)cc2)C(=O)c2ccccc2C(=O)c2c(O)ccc(O)c21 | 26.6 µM (inactive) | 14.2 µM (inactive) | 20.1 µM (inactive) | 32.2 µM (inactive) | 19.5 µM (inactive) | 20.7 µM (inactive) | 19.5 µM (inactive) | 18.9 µM (inactive) | 14.5 µM (inactive) | 17.8 µM (inactive) | 3.66 µM (inactive) | 24.7 µM (inactive) | 28.8 µM (inactive) | 35.9 µM (inactive) | 0.634 µM (active) | 22.4 µM (inactive) | 15.8 µM (inactive) | 27.7 µM (inactive) |  |  |
| COC(=O)c1ccc(/C=N/c2cc(C)nn2-c2ccccc2)cc1 | 76.6 µM (inactive) | > 100 µM (inactive) | 13.5 µM (inactive) | 41 µM (inactive) | 29 µM (inactive) | 18.5 µM (inactive) | 22.2 µM (inactive) | 34.9 µM (inactive) | 8.47 µM (inactive) | 12 µM (inactive) | 38.6 µM (inactive) | 40.9 µM (inactive) | 49 µM (inactive) | 34.4 µM (inactive) | 21.1 µM (inactive) | 20.6 µM (inactive) | 6.04 µM (inactive) | > 100 µM (inactive) | 82.2 µM (inactive) |  |
| CC1=C(C)CC2C(=O)N(c3cc(C(C)(C)C)ccc3C(C)(C)C)C(=O)C2C1 (stereo not given) | 69.5 µM (inactive) | 5.38 µM (inactive) | > 100 µM (inactive) | > 100 µM (inactive) | 50 µM (inactive) | 26.2 µM (inactive) | > 100 µM (inactive) | 61 µM (inactive) | > 100 µM (inactive) | 66.2 µM (inactive) | > 100 µM (inactive) | 62.2 µM (inactive) | > 100 µM (inactive) | 58.3 µM (inactive) | 22.3 µM (inactive) | 47.1 µM (inactive) | > 100 µM (inactive) | > 100 µM (inactive) | > 100 µM (inactive) |  |
| CN(CCN(C)C(=S)NN)C(=S)NN | > 100 µM (inactive) | > 100 µM (inactive) | > 100 µM (inactive) | > 100 µM (inactive) | > 100 µM (inactive) | > 100 µM (inactive) | > 100 µM (inactive) | > 100 µM (inactive) | > 100 µM (inactive) | > 100 µM (inactive) | > 100 µM (inactive) | > 100 µM (inactive) | > 100 µM (inactive) | > 100 µM (inactive) | > 100 µM (inactive) | > 100 µM (inactive) | > 100 µM (inactive) | > 100 µM (inactive) | > 100 µM (inactive) |  |
| O=C(Nc1ccccc1)c1cc(S(=O)(=O)NC2=Nc3ccc(Cl)cc3C(c3ccccc3)N2)c(SSc2cc(Cl)c(C(=O)Nc3ccccc3)cc2S(=O)(=O)NC2=Nc3ccc(Cl)cc3C(c3ccccc3)N2)cc1Cl (stereo not given) | > 100 µM (inactive) | > 100 µM (inactive) | > 100 µM (inactive) | > 100 µM (inactive) | > 100 µM (inactive) | > 80.5 µM (inactive) | > 100 µM (inactive) | > 100 µM (inactive) | 28.4 µM (inactive) | > 100 µM (inactive) | > 100 µM (inactive) | > 100 µM (inactive) | > 100 µM (inactive) | > 100 µM (inactive) | > 100 µM (inactive) | > 100 µM (inactive) | > 100 µM (inactive) | > 100 µM (inactive) | > 100 µM (inactive) |  |
| COc1ccc(C)cc1N1C(=O)C2ON(Cc3ccc(CC(N)=O)cc3)C(c3c4ccccc4c(Cl)c4ccccc34)C2C1=O (stereo not given) | 55.2 µM (inactive) | 25.4 µM (inactive) |  | 22.6 µM (inactive) | 15.1 µM (inactive) | 27.7 µM (inactive) | 20.3 µM (inactive) | 33.2 µM (inactive) | 24.9 µM (inactive) | 28.4 µM (inactive) | 24.3 µM (inactive) | 28.1 µM (inactive) | 21.1 µM (inactive) | 31.8 µM (inactive) | 12.4 µM (inactive) | 24.3 µM (inactive) | 15 µM (inactive) | 25.7 µM (inactive) | 44.1 µM (inactive) |  |
| O=C(/C=C/c1ccc(O)c(O)c1)OCCOC(=O)/C=C/c1ccc(O)c(O)c1 | 32.1 µM (inactive) | 31.3 µM (inactive) | 19.5 µM (inactive) | 24.7 µM (inactive) | 21.1 µM (inactive) | 21.5 µM (inactive) | 21.4 µM (inactive) | 35 µM (inactive) | 20.9 µM (inactive) | 19.3 µM (inactive) | 39.1 µM (inactive) | 32 µM (inactive) | 22.1 µM (inactive) | 24.2 µM (inactive) |  | 25.3 µM (inactive) | 17.9 µM (inactive) | 23.2 µM (inactive) | 36.4 µM (inactive) | 39.5 µM (inactive) |
| N#CC1=C(N2CCCC2)NC(=O)CC1=O | > 100 µM (inactive) | > 100 µM (inactive) | > 100 µM (inactive) | > 100 µM (inactive) | > 100 µM (inactive) | > 100 µM (inactive) | > 100 µM (inactive) | > 100 µM (inactive) | > 100 µM (inactive) | > 100 µM (inactive) | > 100 µM (inactive) | > 100 µM (inactive) | > 100 µM (inactive) | > 100 µM (inactive) |  | > 100 µM (inactive) | > 100 µM (inactive) | > 100 µM (inactive) | > 100 µM (inactive) | > 100 µM (inactive) |
| Cc1ccc(-c2nc(N/N=C/c3ccc(O)cc3)c3ccccc3n2)cc1 | 6.14 µM (inactive) | 7.21 µM (inactive) | 23.4 µM (inactive) | 21.8 µM (inactive) | 14.1 µM (inactive) | 31.9 µM (inactive) | 27.7 µM (inactive) | 8.47 µM (inactive) | 20.5 µM (inactive) | 4.29 µM (inactive) | 1.55 µM (inactive) | 9.06 µM (inactive) | 15.8 µM (inactive) | 20.3 µM (inactive) | 16.8 µM (inactive) | 19.8 µM (inactive) | 4.06 µM (inactive) | 5.47 µM (inactive) | 17.8 µM (inactive) |  |
| CCOc1ccc(C(c2c(O)c3ccccc3oc2=O)c2c(O)c3ccccc3oc2=O)cc1 | 69.8 µM (inactive) | 74.6 µM (inactive) | > 100 µM (inactive) | > 100 µM (inactive) | 48.4 µM (inactive) | 61.5 µM (inactive) | 40.9 µM (inactive) | > 100 µM (inactive) | 33.6 µM (inactive) | 43.8 µM (inactive) | > 100 µM (inactive) | 29.6 µM (inactive) | 24.1 µM (inactive) | 47.4 µM (inactive) |  | 32.7 µM (inactive) | 35.6 µM (inactive) | 20.5 µM (inactive) | 80 µM (inactive) | 36.1 µM (inactive) |
| CCOC(=O)C(NC(=O)OC(C)(C)C)C(=O)OCC | > 100 µM (inactive) | > 100 µM (inactive) | > 100 µM (inactive) | > 100 µM (inactive) | > 100 µM (inactive) | > 100 µM (inactive) | > 100 µM (inactive) | > 100 µM (inactive) | > 100 µM (inactive) |  | > 100 µM (inactive) | > 100 µM (inactive) | > 100 µM (inactive) | > 100 µM (inactive) | > 100 µM (inactive) | > 100 µM (inactive) | > 100 µM (inactive) | > 100 µM (inactive) | > 100 µM (inactive) |  |
| Cc1cn(CCCCC2=NCCCN2)c(=O)[nH]c1=O | > 35.1 µM (inactive) | > 25.2 µM (inactive) | > 31.1 µM (inactive) | > 26.6 µM (inactive) | > 23.3 µM (inactive) | > 46.6 µM (inactive) |  | > 26.5 µM (inactive) | > 26.7 µM (inactive) | > 26.7 µM (inactive) | > 29.5 µM (inactive) | > 26.7 µM (inactive) | > 26.9 µM (inactive) | > 29.6 µM (inactive) |  | > 30.5 µM (inactive) | > 26.2 µM (inactive) | > 24.8 µM (inactive) | > 26.2 µM (inactive) | > 31.8 µM (inactive) |
| CC(C)[C@H]1NC(=O)[C@H]2N=C(S[C@H]2C)[C@@H]2CCCN2C(=O)[C@H](Cc2ccccc2)NC(=O)[C@@H]2CSC(=N2)[C@@H](Cc2ccccc2)NC(=O)[C@@H]2CSC1=N2 | 17.3 µM (inactive) | 25.4 µM (inactive) | 16.1 µM (inactive) | > 50 µM (inactive) | 30.9 µM (inactive) | > 50 µM (inactive) | 25.8 µM (inactive) | 29 µM (inactive) | 11.6 µM (inactive) | 20 µM (inactive) | 10.9 µM (inactive) | 14.6 µM (inactive) | 18.3 µM (inactive) | 35.5 µM (inactive) |  | 14.9 µM (inactive) | 31.7 µM (inactive) | 21.8 µM (inactive) | 14.1 µM (inactive) | 19.2 µM (inactive) |
| CC(C)=CCC/C(C)=C/C=C/C(C)=C/C=C/C(C)=C/C=C/C=C(C)/C=C/C=C(C)/C=C/[C@H]1C(C(C)(C)O)CC[C@]1(C)O (stereo not given in full) |  | 22 µM (inactive) |  | 16.9 µM (inactive) | 15.7 µM (inactive) | 20 µM (inactive) | 27.5 µM (inactive) | 20.2 µM (inactive) | 20.7 µM (inactive) | 18.8 µM (inactive) | 32.1 µM (inactive) | 30.3 µM (inactive) | 37 µM (inactive) | 56.2 µM (inactive) |  | 20.7 µM (inactive) | 21.8 µM (inactive) | 20.2 µM (inactive) | 20.5 µM (inactive) | 27.1 µM (inactive) |
